This is an account of results in ChEMBL document CHEMBL4419120, “Bitter taste receptors” (2015).

Assay [1] concerns the target T1, Taste receptor type 2 member 38 (Homo sapiens, UniProt P59533).
T1 sequence (P59533 whole entry): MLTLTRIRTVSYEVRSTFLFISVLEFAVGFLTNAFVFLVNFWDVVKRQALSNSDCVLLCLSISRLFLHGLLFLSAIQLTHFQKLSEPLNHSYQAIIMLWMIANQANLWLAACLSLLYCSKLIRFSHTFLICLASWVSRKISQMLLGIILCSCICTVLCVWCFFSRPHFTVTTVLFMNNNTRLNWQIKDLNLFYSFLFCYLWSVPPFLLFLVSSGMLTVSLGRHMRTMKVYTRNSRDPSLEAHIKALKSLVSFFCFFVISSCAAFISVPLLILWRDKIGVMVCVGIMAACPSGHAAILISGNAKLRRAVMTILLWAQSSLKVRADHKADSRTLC
The experiment in a line: Activity at human TAS2R38 expressed in HEK-293T-Galpha16-gustducin44 cells assessed as effect on calcium response by FLIPR assay. It counts as functional, cell-based.

The target of assay [2] is T2, Taste receptor type 2 member 38 (Homo sapiens) (UniProt P59533).
T2 sequence (whole entry): T1 sequence (P59533 whole entry)
Briefly: Activity at human TAS2R38 expressed in HEK-293T-Galpha16-gustducin44 cells assessed as threshold concentration of compound at which point receptor detects compounds by measuring calcium response by FLIPR assay. In kind it is functional, cell-based.

Assay [3] has as its system Homo sapiens. The experiment in a line: In-vivo activity at TAS2R16 in trained human taste panelists assessed as detection of bitterness intensity of compound in sensory panel room at 22 to 25 degC by triangle test with tap water as solvent. It counts as functional, organism-based.
Assay [4] has as its target T3, Taste receptor type 2 member 16 (Homo sapiens, UniProt Q9NYV7).
T3 sequence (Q9NYV7 whole entry): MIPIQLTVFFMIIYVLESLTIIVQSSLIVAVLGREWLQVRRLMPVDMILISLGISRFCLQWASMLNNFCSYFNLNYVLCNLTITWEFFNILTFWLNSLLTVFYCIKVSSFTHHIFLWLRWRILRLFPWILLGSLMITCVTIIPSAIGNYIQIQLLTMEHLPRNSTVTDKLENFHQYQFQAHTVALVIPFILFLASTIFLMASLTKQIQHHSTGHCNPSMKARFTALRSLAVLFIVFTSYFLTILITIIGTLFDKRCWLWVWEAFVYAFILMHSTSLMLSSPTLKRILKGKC
Briefly: Activity at human TAS2R16 expressed in HEK293/15 cells assessed as effect on calcium response by FLIPR assay. In kind it is functional, cell-based.

Assay [5] has as its target T4, Taste receptor type 2 member 16 (Homo sapiens) (UniProt Q9NYV7).
T4 sequence (whole entry): T3 sequence (Q9NYV7 whole entry)
Briefly: Activity at human TAS2R16 expressed in HEK-293T-Galpha16-gustducin44 cells assessed as threshold concentration of compound at which point receptor detects compounds by measuring calcium response by FLIPR assay. In kind it is functional, cell-based.

The target in assay [6] is T3, Taste receptor type 2 member 16. Briefly: Activity at human TAS2R16 expressed in HEK-293T-Galpha16-gustducin44 cells assessed as effect on calcium response by FLIPR assay. It counts as functional, cell-based.
Assay [7] relates to Homo sapiens. Briefly: In-vivo activity at TAS2R16 in trained human taste panelists assessed as threshold concentration of compound at which point panelists detects bitterness intensity of compound in sensory panel room at 22 to 25 degC by triangle test with tap water as solvent. It counts as functional.
Assay [8] has as its target T4, Taste receptor type 2 member 16 (Homo sapiens). Briefly: Activity at human TAS2R16 expressed in HEK293/15 cells assessed as threshold concentration of compound at which point receptor detects compounds by measuring calcium response by FLIPR assay. It counts as functional, cell-based.
In assay [9] the target is T5, Taste receptor type 2 member 14 (Homo sapiens) (UniProt Q9NYV8).
T5 sequence (whole entry): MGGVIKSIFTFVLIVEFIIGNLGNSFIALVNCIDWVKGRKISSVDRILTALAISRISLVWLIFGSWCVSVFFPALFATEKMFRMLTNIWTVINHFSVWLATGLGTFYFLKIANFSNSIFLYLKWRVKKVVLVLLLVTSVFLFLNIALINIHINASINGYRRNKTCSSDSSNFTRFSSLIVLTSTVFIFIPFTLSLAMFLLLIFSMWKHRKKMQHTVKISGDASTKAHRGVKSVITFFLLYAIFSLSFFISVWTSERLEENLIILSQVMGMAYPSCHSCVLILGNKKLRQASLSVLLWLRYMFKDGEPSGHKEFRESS
Briefly: Activity at human TAS2R14 expressed in HEK-293T-Galpha16-gustducin44 cells assessed as concentration of compound which reacts with receptor by measuring calcium response by FLIPR assay. It counts as functional, cell-based.

Assay [10] addresses T4, Taste receptor type 2 member 16 (Homo sapiens). Briefly: Activity at human TAS2R16 expressed in HEK293/15 cells assessed as effect on calcium response up to 100 mM by FLIPR assay. In kind it is functional, cell-based.
For assay [11] the target is unchanged. Briefly: Activity at human TAS2R16 expressed in HEK293/15 cells assessed as threshold concentration of compound at which point receptor detects compounds by measuring calcium response up to 100 mM by FLIPR assay. In kind it is functional, cell-based.
For assay [12], the target named is T2, Taste receptor type 2 member 38 (Homo sapiens). Briefly: Activity at human TAS2R38 expressed in HEK-293T-Galpha16-gustducin44 cells assessed as concentration of compound which reacts with receptor by measuring calcium response by FLIPR assay. In kind it is functional, cell-based.
Assay [13] concerns the target T6, Taste receptor type 2 member 10 (Homo sapiens) (UniProt Q9NYW0).
T6 sequence (whole entry): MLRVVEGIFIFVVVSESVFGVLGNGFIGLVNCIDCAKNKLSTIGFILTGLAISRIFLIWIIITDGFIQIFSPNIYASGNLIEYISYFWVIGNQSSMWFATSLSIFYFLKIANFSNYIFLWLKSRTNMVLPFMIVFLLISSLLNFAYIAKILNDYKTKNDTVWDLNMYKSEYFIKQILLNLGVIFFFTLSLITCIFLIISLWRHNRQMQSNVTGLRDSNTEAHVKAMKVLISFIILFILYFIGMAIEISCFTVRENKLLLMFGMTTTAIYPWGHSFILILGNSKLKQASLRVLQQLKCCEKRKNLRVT
The experiment in a line: Activity at human TAS2R10 expressed in HEK293/15 cells assessed as compound concentration showing threshold of activation on calcium response by FLIPR assay. It counts as functional, cell-based.

Assay [14] has as its target T6, Taste receptor type 2 member 10 (Homo sapiens). The experiment in a line: Activity at human TAS2R10 expressed in HEK-293T-Galpha16-gustducin44 cells assessed as threshold concentration of compound at which point receptor detects compounds by measuring calcium response by FLIPR assay. In kind it is functional, cell-based.
For assay [15], the target named is T7, Taste receptor type 2 member 10 (Homo sapiens, UniProt Q9NYW0).
T7 sequence (Q9NYW0 whole entry): T6 sequence (whole entry)
The experiment in a line: Activity at human TAS2R10 expressed in HEK-293T-Galpha16-gustducin44 cells assessed as effect on calcium response by FLIPR assay. It counts as functional, cell-based.

Calls of active or inactive are those of the source.

Turning to `O=c1cc[nH]c(=S)[nH]1` [THIOURACIL], the EC50 in assay [1] was 2000 µM. Further, the Activity in [2] was determined as 300 µM.
Consider `O=Cc1ccccc1O[C@@H]1O[C@H](CO)[C@@H](O)[C@H](O)[C@H]1O` [HELICIN], for which the EC50 with Homo sapiens [3] was found to be 2200 µM; in [4], 2300 µM; in assay [6], 2300 µM. Further, the results for the Activity (in [5]; with Homo sapiens [7]; in assay [8]) were 0.3 mM, 0.4 mM and 0.3 mM, respectively.
For `O=[N+]([O-])c1ccc(O[C@@H]2O[C@H](CO)[C@@H](O)[C@H](O)[C@H]2O)cc1`, the Activity in assay [5] lay in the range of 1 to 3 mM.
For `CNC(N)=S`, in assay [1], the half-maximal effective concentration (EC50) is 600 to 800 µM. The Activity in assay [2] was determined as 100 µM.
Turning to `OCc1ccccc1O[C@@H]1O[C@H](CO)[C@@H](O)[C@H](O)[C@H]1O` [SALICIN], the EC50 in the assay on Homo sapiens [3] came out at 1100 µM; in [4], 1400 µM; in assay [6] it was 1400 µM. Moreover, the Activity in assay [5] came to 0.07 mM; in the assay on Homo sapiens [7], 0.2 mM; in assay [8], 0.07 mM.
Consider `CN(C)C=S`, for which the EC50 in [1] was 55 µM. Also, the Activity in assay [2] was determined as 10 µM.
Turning to `O=c1ccc2cc(O[C@@H]3O[C@H](CO)[C@@H](O)[C@H](O)[C@H]3O)c(O)cc2o1` [ESCULIN], the Activity (in assay [5]; in the assay on Homo sapiens [7]; in assay [8]) was 4 mM throughout.
As for `CCNC(N)=S`, the EC50 in [1] worked out at 260 µM.
With `CO[C@@H]1O[C@H](CO)[C@@H](O)[C@H](O)[C@H]1O`, the values for the Activity (in assay [5]; in the assay with Homo sapiens [7]; in [8]) were 15 mM, 32 mM and 15 mM, respectively. Besides, the EC50 in assay [6] came out at 32000 µM.
On to `N[C@@H](Cc1ccc(O)cc1)C(=O)O`, for which, in assay [9], the Activity was 1 mM.
As for `OC[C@H]1O[C@@H](Oc2ccccc2)[C@H](O)[C@@H](O)[C@@H]1O`, the EC50 with Homo sapiens [3] stood at 700 µM; in [4], 1100 µM; in assay [6] it was 1100 µM. Moreover, the Activity in [5] was 0.07 mM; with Homo sapiens [7], 0.1 mM; in [8], 0.07 mM.
For `NC(=S)Nc1ccccc1` [PHENYLTHIOUREA], in [1], the EC50 is 2 µM. The Activity in assay [2] was found to be 0.3 µM.
With `OC[C@H]1O[C@@H](Oc2ccccc2)[C@H](O)[C@@H](O)[C@H]1O`, the Activity in the assay with Homo sapiens [7] is on record as 40 mM. Also, the outcome in assay [10] and in assay [11] was inactive.
In the case of `O=C1CC(=O)NC(=S)N1`, the Activity in assay [12] is 10 mM.
Regarding `O=[N+]([O-])c1ccc(O[C@@H]2O[C@H](CO)[C@@H](O)[C@H](O)[C@@H]2O)cc1`, the Activity in assay [5] fell in the range of 1 to 3 mM.
With `OC[C@H]1O[C@@H](Oc2ccc(O)cc2)[C@H](O)[C@@H](O)[C@@H]1O` [ARBUTIN], the EC50 came out at 5400 µM in the assay with Homo sapiens [3], 5800 µM in assay [4] and 5800 µM in assay [6]. The Activity in [5] is 0.5 mM; in the assay with Homo sapiens [7] it was 0.9 mM; in [8] it was 0.5 mM.
With `N#C[C@H](O[C@@H]1O[C@H](CO[C@@H]2O[C@H](CO)[C@@H](O)[C@H](O)[C@H]2O)[C@@H](O)[C@H](O)[C@H]1O)c1ccccc1` [AMYGDALIN], the EC50 in assay [4] and in assay [6] was 20000 µM in each case. For the same compound, the Activity in assay [5] and in assay [8] was 2.3 mM throughout.
As to `OC[C@H]1O[C@@H](Oc2ccc3ccccc3c2)[C@H](O)[C@@H](O)[C@@H]1O`, the 50% effective concentration (EC50) with Homo sapiens [3] was determined as 1400 µM; in assay [4] it was 1000 µM; in [6] it was 1000 µM. Also, the Activity in assay [5] is 0.4 mM; in the assay on Homo sapiens [7], 0.2 mM; in assay [8], 0.4 mM.
As for `CC/N=C(/N)S`, in [2], the Activity worked out at 30 µM.
On to `S=C1NCCN1`, for which the Activity in [2] is 10 µM.
Same read-out and setting: next, `CC(=N)S`: 100 µM.
As for `CC(=S)Nc1ccccc1`, the EC50 in assay [1] was determined as 18 µM. Moreover, the Activity in assay [2] was found to be 3 µM.
For `CCCc1cc(=O)[nH]c(=S)[nH]1` [PROPYLTHIOURACIL] the same measures were 2 µM and 0.3 µM.
As for `O=C1C[C@@H]2OCC=C3CN4CC[C@]56c7ccccc7N1[C@H]5[C@H]2[C@H]3C[C@H]46` [STRYCHNINE], the Activity in assay [13] worked out at 0.1 µM; in assay [14], 0.003 mM. Further, the EC50 in [15] stood at 40 µM.
Regarding `CC(=O)NC(N)=S`, in [1], the EC50 is 15 µM. Moreover, the Activity in assay [2] turned out to be 2 µM.
Taken in the same sequence, the figures for `CN(C)C(=S)N(C)C` were 100 µM and 10 to 30 µM.
As for `O=[N+]([O-])c1ccc(S[C@@H]2O[C@H](CO)[C@@H](O)[C@H](O)[C@H]2O)cc1`, the Activity in assay [5] was 1 to 5 mM.
As for `O=c1cc(-c2ccccc2)[nH]c(=S)[nH]1`, in [1], the concentration giving a half-maximal response (EC50) was determined as 0.5 µM. Further, in [2], the Activity was determined as 0.15 µM.
Regarding `O=[N+]([O-])c1ccccc1O[C@@H]1O[C@H](CO)[C@@H](O)[C@H](O)[C@H]1O`, the figures for the Activity in assay [5] and in assay [8] were 0.3 to 1 mM and 1.5 mM, respectively.
For `CC[N+](CC)(CC(=O)Nc1c(C)cccc1C)Cc1ccccc1` [DENATONIUM BENZOATE], the Activity in [14] is 0.003 mM. Further, the EC50 in assay [15] was 70 µM.
As for `OC[C@H]1O[C@H](Oc2ccccc2)[C@H](O)[C@@H](O)[C@@H]1O`, the EC50 with Homo sapiens [3] turned out to be 50000 µM. In the assay on Homo sapiens [7], the Activity came to 9 mM. The outcome in assay [10] and in assay [11] was inactive.
Take `COc1cc2c(cc1OC)[C@@]13CCN4CC5=CCO[C@H]6CC(=O)N2[C@H]1[C@H]6[C@H]5C[C@H]43` [BRUCINE]: the outcome in [13] was Active. The Activity in assay [14] was 0.01 mM. In addition, the EC50 in assay [15] was 60 µM.
